Laboratory results: patent US9598416B2, “Substituted benzothienyl-pyrrolotriazines and uses thereof in the treatment cancer” (Bayer Intellectual Property GmbH, priority 2011, dated 2017)

Molecular target: human FGFR-3 (Homo sapiens (Human), UniProt P22607)
Assay: FGFR-3 kinase assay (TR-FRET)
Format: biochemical
Details: 10 μM ATP; compounds of the invention

human FGFR-3, sequence (P22607 397-806): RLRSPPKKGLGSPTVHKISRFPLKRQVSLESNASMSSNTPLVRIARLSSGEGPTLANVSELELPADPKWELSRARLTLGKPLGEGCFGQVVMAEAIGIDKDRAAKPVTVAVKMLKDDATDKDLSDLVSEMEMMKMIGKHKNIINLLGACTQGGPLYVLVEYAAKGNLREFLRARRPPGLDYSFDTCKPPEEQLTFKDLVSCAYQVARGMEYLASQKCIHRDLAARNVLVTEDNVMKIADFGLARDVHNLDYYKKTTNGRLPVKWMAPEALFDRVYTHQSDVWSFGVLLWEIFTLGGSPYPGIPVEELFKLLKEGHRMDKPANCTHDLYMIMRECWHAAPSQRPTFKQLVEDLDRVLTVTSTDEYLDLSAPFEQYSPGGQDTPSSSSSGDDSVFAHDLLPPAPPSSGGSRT

Row | SMILES | IC50 [nM]
1 | COc1cc(C)cc2cc(-c3c(CN4CCCCC4)cn4ncnc(N)c34)sc12 [Example 51] | 0.7
2 | COc1cc(C)cc2cc(-c3c(CN4CCOC(C)(C)C4)cn4ncnc(N)c34)sc12 [Example 52] | 3.8
3 | COc1cc(C)cc2cc(-c3c(CN4CC(OC)C4)cn4ncnc(N)c34)sc12 [Example 53] | 15.1
4 | COc1cc(C)cc2cc(-c3c(CN4CCCOCC4)cn4ncnc(N)c34)sc12 [Example 54] | 2.3
5 | COc1cc(C)cc2cc(-c3c(CN4CCNC(=O)C4C)cn4ncnc(N)c34)sc12 (stereo not shown) [Example 55] | 1.4
6 | COc1cc(C)cc2cc(-c3c(CN4CNC(=O)C4)cn4ncnc(N)c34)sc12 [Example 56] | 3.1
7 | COc1cc(C)cc2cc(-c3c(CN(C)C4CCS(=O)(=O)C4)cn4ncnc(N)c34)sc12 (stereo not shown) [Example 57] | 3
8 | COc1cc(C)cc2cc(-c3c(CN4CCN(C5CC5)CC4)cn4ncnc(N)c34)sc12 [Example 58] | 6.2
9 | COc1cc(C)cc2cc(-c3c(CN(C)CC(C)OC)cn4ncnc(N)c34)sc12 (stereo not shown) [Example 59] | 4
10 | COc1cc(C)cc2cc(-c3c(CN4CCC(OC)CC4)cn4ncnc(N)c34)sc12 [Example 60] | 12.5
11 | COc1cc(C)cc2cc(-c3c(CN(C)CC(F)(F)F)cn4ncnc(N)c34)sc12 [Example 61] | 14.6
12 | COc1cc(C)cc2cc(-c3c(CN4CCCC(OC)C4)cn4ncnc(N)c34)sc12 (stereo not shown) [Example 62] | 2.6
13 | COc1cc(C)cc2cc(-c3c(CN4CCC(F)(F)C4)cn4ncnc(N)c34)sc12 [Example 63] | 3
14 | COc1cc(C)cc2cc(-c3c(CN4CCC(C(N)=O)CC4)cn4ncnc(N)c34)sc12 [Example 64] | 1.1
15 | COc1cc(C)cc2cc(-c3c(CN4CC[C@@H](N(C)C)C4)cn4ncnc(N)c34)sc12 [Example 65] | 0.6
16 | COc1cc(C)cc2cc(-c3c(CN4CC[C@H](N(C)C)C4)cn4ncnc(N)c34)sc12 [Example 66] | 0.5
17 | COc1cc(C)cc2cc(-c3c(CN4CCCC(N(C)C)C4)cn4ncnc(N)c34)sc12 (stereo not shown) [Example 67] | 0.6
18 | COc1cc(C)cc2cc(-c3c(CN4CCCN(C)CC4)cn4ncnc(N)c34)sc12 [Example 68] | 0.8
19 | COc1cc(C)cc2cc(-c3c(CN4CCCC(C(N)=O)C4)cn4ncnc(N)c34)sc12 (stereo not shown) [Example 69] | 4.4
20 | COCCN(C)Cc1cn2ncnc(N)c2c1-c1cc2cc(C)cc(OC)c2s1 [Example 70] | 7.4
21 | COc1cc(C)cc2cc(-c3c(CNC4CCS(=O)(=O)C4)cn4ncnc(N)c34)sc12 (stereo not shown) [Example 72] | 5.5
22 | COc1cc(C)cc2cc(-c3c(CNC4CCOC4)cn4ncnc(N)c34)sc12 (stereo not shown) [Example 73] | 2.3
23 | CCC(C)NCc1cn2ncnc(N)c2c1-c1cc2cc(C)cc(OC)c2s1 (stereo not shown) [Example 74] | 5
24 | COc1cc(C)cc2cc(-c3c(CN4CCOC(C)C4)cn4ncnc(N)c34)sc12 (stereo not shown) [Example 76] | 4.9
25 | COc1cc(C)cc2cc(-c3c(CN4CCS(=O)(=O)CC4)cn4ncnc(N)c34)sc12 [Example 77] | 15.3
